For test [1], the species on record is Mus musculus. Kind of test: animal or person. Conditions: po. Type of test: functional.
Test [2] is filed under the species Mus musculus. Kind of test: animal or person. It counts as functional. The conditions noted are these: sc.

The structures appear in SMILES notation.

`COc1cccc2c1CC[C@H](N1CCCC1)[C@H]2N(C)C(=O)CSc1ccc(Cl)c(Cl)c1.Cl`: the ED50 – broadly, the dose that gives a 50% effect, or the effect in half of the subjects – in the test filed under Mus musculus [1] is more than 81 mg/kg; in the test listed under Mus musculus [2], 47 mg/kg.

Regarding `COc1cccc2c1CC[C@H](N1CCCC1)[C@H]2N(C)C(=O)CCc1ccc(Cl)c(Cl)c1.Cl`, the results for the ED50 in the test listed under Mus musculus [1] and in the test filed under Mus musculus [2] were 81 mg/kg and 38 mg/kg, respectively.

Turning to `CN(C(=O)Cc1ccc(Cl)c(Cl)c1)[C@H]1c2cccc(OC(=O)c3ccccc3)c2CC[C@@H]1N1CCCC1.Cl`, the ED50 in the test filed under Mus musculus [1] was 6.4 mg/kg; in the test filed under Mus musculus [2], 0.71 mg/kg.

As for `COc1ccc2c(c1)CC[C@H](N1CC=CC1)[C@H]2N(C)C(C)=O.Cl`, the ED50 stood at 3.4 mg/kg in the test filed under Mus musculus [1] and 0.24 mg/kg in the test listed under Mus musculus [2].

As for `COc1ccc2c(c1)CC[C@H](N1CCCCC1)[C@H]2N(C)C(C)=O.Cl`, the 50% effective dose (ED50) in the test listed under Mus musculus [1] and in the test filed under Mus musculus [2] was more than 81 mg/kg each time.

Turning to `COc1ccc2c(c1)CC[C@H](N1C=CN(C)CC1)[C@H]2N(C)C(C)=O.Cl`, the ED50 in the test filed under Mus musculus [1] and in the test filed under Mus musculus [2] was more than 81 mg/kg in each case.

In the case of `COc1ccc2c(c1)CC[C@H](N1CCCC1)[C@H]2N(C)C=O.Cl`, the ED50 was 81 mg/kg in the test filed under Mus musculus [1] and 47 mg/kg in the test listed under Mus musculus [2].

With `CN(C(=O)Cc1ccc(Cl)c(Cl)c1)[C@H]1c2ccccc2-c2ccccc2[C@@H]1N1CCCC1.Cl`, the ED50 in the test filed under Mus musculus [1] and in the test filed under Mus musculus [2] was more than 81 mg/kg throughout.

Turning to `CN(C(=O)Cc1ccc(Cl)c(Cl)c1)[C@H]1CCc2ccccc2[C@@H]1N1CCCC1.Cl`, the values for the ED50 in the test listed under Mus musculus [1] and in the test listed under Mus musculus [2] were more than 81 mg/kg and 0.16 mg/kg, respectively.
